What was measured:
[1] = system: healthy volunteers; conditions: after seven days of carbenoxolone treatment; cited from earlier work
[2] = target: T1, human 11βHSD1 (Homo sapiens, UniProt P28845); experiment: Enzymatic assay of 11βHSD1 (Scintillation Proximity Assay, clarified lysates); type: biochemical; conditions: SPA, HEK-293 lysate expressing full-length human 11βHSD1, 25 nM 3H-cortisone, 400 μM NADPH, 37° C., one hour
T1 construct: made in house; host or cells: HEK-293 transient transfectants; clarified lysate, not purified
Procedure: Enzymatic assay of 11βHSD1
All in vitro assays were performed with clarified lysates as the source of 11βHSD1 activity. HEK-293 transient transfectants expressing an epitope-tagged version of full-length human 11βHSD1 were harvested by centrifugation. Roughly 2×10^7 cells were resuspended in 40 mL of lysis buffer (25 mM Tris-HCl, pH 7.5, 0.1 M NaCl, 1 mM MgCl2 and 250 mM sucrose) and lysed in a microfluidizer. Lysates were clarified by centrifugation and the supernatants were aliquoted and frozen.
Inhibition of 11βHSD1 by test compounds was assessed in vitro by a Scintillation Proximity Assay (SPA). Dry test compounds were dissolved at 5 mM in DMSO. These were diluted in DMSO to suitable concentrations for the SPA assay. 0.8 μL of 2-fold serial dilutions of compounds were dotted on 384 well plates in DMSO such that 3 logs of compound concentration were covered. 20 μL of clarified lysate was added to each well. Reactions were initiated by addition of 20 μL of substrate-cofactor mix in assay buffer (25 mM Tris-HCl, pH 7.5, 0.1 M NaCl, 1 mM MgCl2) to final concentrations of 400 μM NADPH, 25 nM ^3H-cortisone and 0.007% Triton X-100. Plates were incubated at 37° C. for one hour. […] Quenched plates were incubated for a minimum of 30 minutes at RT prior to reading on a Topcount scintillation counter. […]

T1 sequence (P28845 whole entry): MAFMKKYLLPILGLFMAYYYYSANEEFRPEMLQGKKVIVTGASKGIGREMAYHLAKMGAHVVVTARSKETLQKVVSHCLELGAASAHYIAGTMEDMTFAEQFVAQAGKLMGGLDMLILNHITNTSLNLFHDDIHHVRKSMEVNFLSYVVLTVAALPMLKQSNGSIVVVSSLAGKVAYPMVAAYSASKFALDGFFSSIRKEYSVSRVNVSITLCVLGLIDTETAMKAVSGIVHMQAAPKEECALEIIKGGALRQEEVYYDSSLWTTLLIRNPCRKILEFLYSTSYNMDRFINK

Compound | IOP was reduced by [1] [%] | IC50 [2] [µM]
CC1(C)[C@@H](OC(=O)CCC(=O)O)CC[C@]2(C)[C@H]3C(=O)C=C4[C@@H]5C[C@@](C)(C(=O)O)CC[C@]5(C)CC[C@@]4(C)[C@]3(C)CC[C@@H]12 [carbenoxolone] | 18 | 
CC(=O)N1CCC2(CC(C3(c4ccc(Cl)cc4)CC3)=NO2)C1 (centres unmarked) [Example 1, 7-Acetyl-3-[1-(4-chlorophenyl)cyclopropyl]-1-oxa-2,7-diazaspiro[4.4]non-2-ene] |  | < 5
